What was measured:
Kv4.3 channels = biological target: T1, Kv4.3 channels (Homo sapiens, UniProt Q9UK17); experiment: Patch-clamp in CHO cells transiently transfected with Kv4.3 only; type: cell-based; conditions: 100 nM, FIG. 1B
T1 construct: expressed in transfected cells; host or cells: CHO cells, transient transfection
T1 sequence (Q9UK17 1-655): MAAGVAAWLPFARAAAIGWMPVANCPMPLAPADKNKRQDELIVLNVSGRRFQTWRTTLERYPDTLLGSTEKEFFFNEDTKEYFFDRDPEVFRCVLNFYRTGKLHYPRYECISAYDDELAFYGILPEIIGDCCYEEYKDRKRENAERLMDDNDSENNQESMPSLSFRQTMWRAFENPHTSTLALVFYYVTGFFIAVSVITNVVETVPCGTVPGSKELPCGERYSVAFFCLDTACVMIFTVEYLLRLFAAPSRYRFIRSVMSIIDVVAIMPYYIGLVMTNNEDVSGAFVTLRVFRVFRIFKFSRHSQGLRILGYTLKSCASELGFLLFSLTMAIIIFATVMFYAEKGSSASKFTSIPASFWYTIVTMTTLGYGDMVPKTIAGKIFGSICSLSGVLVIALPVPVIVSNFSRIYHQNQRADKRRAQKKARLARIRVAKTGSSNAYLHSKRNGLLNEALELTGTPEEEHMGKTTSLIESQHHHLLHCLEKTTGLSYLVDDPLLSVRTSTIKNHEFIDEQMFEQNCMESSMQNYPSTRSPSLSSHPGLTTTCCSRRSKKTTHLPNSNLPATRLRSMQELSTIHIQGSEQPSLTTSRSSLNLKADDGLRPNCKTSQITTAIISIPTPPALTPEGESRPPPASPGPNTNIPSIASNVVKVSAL
Description: (§1) The new compounds synthesised according to this invention have been evaluated in vitro in voltage-binding assays in CHO cells transiently transfected with cDNA encoding Kv4.3 only or Kv4.3 in the presence of DREAM (Kv4.3+DREAM) using the patch-clamp technique. […] For some of the compounds evaluated, this effect is selective and is only observed in the presence of the DREAM channel modulator.

Kv4.3+DREAM channels = biological target: T2, Kv4.3+DREAM channels (Homo sapiens, UniProt Q9UK17+Q9Y2W7); experiment: Patch-clamp in CHO cells transiently transfected with Kv4.3 in the presence of DREAM; type: cell-based; conditions: 100 nM; for inhibitory effect of the Kv4.3+DREAM current (% decrease of the amount of charge passing through the membrane): CHO cells, FIG. 1B
T2 construct: expressed in transfected cells; host or cells: CHO cells, transient transfection
T2 sequence (Q9Y2W7 1-256): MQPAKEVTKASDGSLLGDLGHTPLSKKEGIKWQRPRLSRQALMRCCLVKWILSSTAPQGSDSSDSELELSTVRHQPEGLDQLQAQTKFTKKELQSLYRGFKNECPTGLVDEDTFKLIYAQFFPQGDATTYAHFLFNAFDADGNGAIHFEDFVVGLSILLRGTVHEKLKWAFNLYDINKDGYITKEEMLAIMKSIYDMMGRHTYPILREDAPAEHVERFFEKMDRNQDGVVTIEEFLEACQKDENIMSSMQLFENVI
T2 sequence (Q9UK17 1-655): T1 sequence (Q9UK17 1-655)
Description: as §1

[1] = tested on: STHdh^Q111/Q111 cells infected with lentivirus expressing the complete human DREAM protein (Q111DR); experiment: Neuroprotection against H2O2-mediated necrosis (LDH release) in Q111DR cells; type: cell-based, mouse; conditions: compound 100 nM; H2O2 0.66 mM; FIG. 2
Description: FIG. 2. […] RP: Repaniglida.
(§2) In an immortalized cell line of mouse striatum infected with lentivirus STHdh^Q111/Q111 expressing the complete human DREAM protein (Q111DR), the neuroprotective effect of the compounds was tested against necrosis mediated by H2O2 and apoptosis mediated by staurosporine.

[2] = tested on: STHdh^Q111/Q111 cells infected with lentivirus expressing the complete human DREAM protein (Q111DR); experiment: Neuroprotection against staurosporine-mediated apoptosis (caspase-3 activation) in Q111DR cells; type: cell-based, mouse; conditions: compound 100 nM, 1 h pre-incubation; staurosporine 1 μM for 5 h; compared with repaglinide (RP); FIG. 3
Description: FIG. 3. Analysis of the neuroprotective effect of compounds 9, 16, 22, 23 and 62 (100 nM) against the activation of caspase-3 mediated by staurosporine in ^Q111/Q111 cells infected with lentivirus expressing the complete human DREAM protein. The caspase-3 activity was measured after 1 h of pre-incubation of the compounds (100 nM) and subsequent exposure for 5 h of staurosporine at 1 μM. RP: Repaniglida.
as §2

SMILES	inhibitory effect of the Kv4.3 current in the absence of DREAM (% decrease of the amount of charge passing through the membrane) (Kv4.3 channels)	inhibitory effect of the Kv4.3+DREAM current (% decrease of the amount of charge passing through the membrane) (Kv4.3+DREAM channels)	selectivity of Kv4.3 current inhibition for the presence of DREAM (Kv4.3+DREAM channels; Kv4.3+DREAM versus Kv4.3 only)	release of LDH (lactate dehydrogenase) mediated by H2O2, neuroprotective effect [1]	activation of caspase-3 mediated by staurosporine, neuroprotective effect [2]
CCCCc1ccc(-c2ccc(C(=O)O)c(NC(=O)Cc3ccc(Cl)c(Cl)c3)c2)cc1 [Compound 35, 2-[2-(3,4-dichlorophenyl)acetylamino]-4-(4′-n-butylphenyl)benzoic acid]	only inhibit the Kv4.3 current in the presence of DREAM	only inhibit the Kv4.3 current in the presence of DREAM	–	–	–
O=C(Cc1ccc(Cl)c(Cl)c1)Nc1ccc(-c2ccccc2)cc1C(=O)O [Compound 42, 2-[2-(3,4-dichlorophenyl)acetylamino]-5-phenylbenzoic acid]	only inhibit the Kv4.3 current in the presence of DREAM	only inhibit the Kv4.3 current in the presence of DREAM	–	–	–
COC(=O)[C@@H](Cc1cn(C(c2ccccc2)(c2ccccc2)c2ccccc2)cn1)NC(=O)Cc1ccc(Cl)c(Cl)c1 [Compound 62, (2R)-2-[2-(3,4-dichlorophenyl)acetylamino]-3-(1-trityl-1H-imidazol-4-yl)methyl propanoate]	similarly inhibits the current generated by the Kv4.3 channels	similarly inhibits the current generated by the Kv4.3 channels to that of the Kv4.3 channels in the presence of DREAM	has no selectivity	lowest LDH release	lowest activation of caspase-3

— patent US10526276B2, “Dream neuronal calcium sensor-modulating compounds, and therapeutic uses thereof” (CONSEJO SUPERIOR DE INVESTIGACIONES CIENTÍFICAS, priority 2014, dated 2020)
